Experimental data published in PMC8657898, “Cytokinin Perception in Ancient Plants beyond Angiospermae” (International Journal of Molecular Sciences, 2021).
Read-outs that look alike come from different tables or passages of the source.

Assays:
PaCHK1 [1] = experiment: competition of unlabeled CKs with 3H-iP, tobacco leaf microsomes expressing the receptor; assay type: binding, Picea abies
SmCHK4a [2] = molecular target: T1, SmCHK4a (Selaginella moellendorffii, UniProt D8R9F4); experiment: direct 3H-iP binding (saturation, pH dependence), tobacco leaf microsomes; settings: saturation curve of 3H-iP specific binding
PpCHK1 [3] = molecular target: T2, PpCHK1 (Physcomitrium patens, UniProt A0A068JFF6); experiment: as above; settings: saturation curve of 3H-iP specific binding
SmCHK6 [4] = molecular target: T3, SmCHK6 (Selaginella moellendorffii, UniProt D8SUD5); experiment: competition of unlabeled CKs with 3H-iP, tobacco leaf microsomes expressing the receptor; assay type: binding
PpCHK4 = experiment: specific binding of 3H-iP, tobacco leaf microsomes; set-up: species or system Physcomitrium patens; settings: PpCHK4 sensory module; expression confirmed by immunoblotting
Description: (§1) We experimentally analyzed the ligand-binding properties of CHK receptors from P. patens, S. moellendorffii, and P. abies using a radiolabeled ligand method and microsomes from tobacco leaves where these receptors were transiently expressed. Tritiated isopentenyladenine served as the labeled CK. PpCHK1 and 2 proteins from P. patens were tested in a full-length version, and otherwise sensory modules (SMs) flanked by TM helices were used. PpCHK1-3 represented canonical CHK receptor group, while PpCHK4 was a representative of the related sister group. […]
(§2) Of the eight cloned receptors, we detected no CK binding for PpCHK3 and PpCHK4, although expression of these proteins was confirmed by immunoblotting against the fused GFP domain (Figure 2). […]
(§3) pK7WGF2 and pB7FWG2 constructs were transformed to Agrobacterium tumefaciens strain GV3101 and transiently expressed in Nicotiana benthamiana leaves. […] Transient expression was assessed by means of immunoblotting of microsomal membranes with antibodies against GFP (Agrisera, AS15 2987) diluted 1:5000 as described in [15]. Background binding of ^3H-iP by endogenous CK receptors of N. benthamiana was assessed in control probes using microsomes from untreated leaves (Figure 2). […]

PpCHK3 [5] = experiment: specific binding of 3H-iP, tobacco leaf microsomes; set-up: species or system Physcomitrium patens; settings: PpCHK3 sensory module; expression confirmed by immunoblotting
Description: as §1, §2, §3

PpCHK2 [6] = molecular target: T4, PpCHK2 (Physcomitrium patens, UniProt A0A068JG96); experiment: direct 3H-iP binding (saturation, pH dependence), tobacco leaf microsomes; settings: saturation curve of 3H-iP specific binding
SmCHK6 [7] = molecular target: T3, SmCHK6; experiment: as above; settings: saturation curve of 3H-iP specific binding
PaCHK1 [8] = experiment: as above; set-up: species or system Picea abies; settings: saturation curve of 3H-iP specific binding
PaCHK2 [9] = experiment: competition of unlabeled CKs with 3H-iP, tobacco leaf microsomes expressing the receptor; assay type: binding, Picea abies
PpCHK1 [10] = molecular target: T2, PpCHK1; experiment: as above; assay type: binding
PpCHK2 [11] = molecular target: T4, PpCHK2; experiment: as above; assay type: binding
SmCHK4a [12] = molecular target: T1, SmCHK4a; experiment: as above; assay type: binding
PaCHK2 [13] = experiment: direct 3H-iP binding (saturation, pH dependence), tobacco leaf microsomes; set-up: species or system Picea abies; settings: saturation curve of 3H-iP specific binding
PpCHK3 [14] = settings: previous data; cited from earlier work
AHK3 = AHK3 from A. thaliana; cited from earlier work
[15] = PaCHK1, competition with 3H-iP, Cheng-Prusoff calculation method, ± SE, read-out: KD of CK-Receptor Complexes
[16] = PaCHK1, competition with 3H-iP, alternative calculation method (Appendix A), ± SE, read-out: KD of CK-receptor complexes
[17] = SmCHK6, competition with 3H-iP, Cheng-Prusoff calculation method, ± SE, read-out: KD of CK-Receptor Complexes
[18] = SmCHK6, competition with 3H-iP, alternative calculation method (Appendix A), ± SE, read-out: KD of CK-receptor complexes
[19] = PaCHK2, competition with 3H-iP, Cheng-Prusoff calculation method, ± SE, read-out: KD of CK-Receptor Complexes
[20] = PpCHK1, competition with 3H-iP, alternative calculation method (Appendix A), ± SE, read-out: KD of CK-receptor complexes
[21] = PpCHK2, competition with 3H-iP, alternative calculation method (Appendix A), ± SE, read-out: KD of CK-receptor complexes
[22] = SmCHK4a, competition with 3H-iP, Cheng-Prusoff calculation method, ± SE, read-out: KD of CK-Receptor Complexes
[23] = SmCHK4a, competition with 3H-iP, alternative calculation method (Appendix A), ± SE, read-out: KD of CK-receptor complexes
[24] = read-out: KD of CK-Receptor Complexes
[25] = read-out: KD of CK-receptor complexes
[26] = PpCHK1, competition with 3H-iP, Cheng-Prusoff calculation method, ± SE, read-out: KD of CK-Receptor Complexes
[27] = PpCHK2, competition with 3H-iP, Cheng-Prusoff calculation method, ± SE, read-out: KD of CK-Receptor Complexes
[28] = PaCHK2, competition with 3H-iP, alternative calculation method (Appendix A), ± SE, read-out: KD of CK-receptor complexes
[29] = KD for PaCHK1 divided by KD for PaCHK2, Table 1 values

T1 sequence (D8R9F4 entry or part of it): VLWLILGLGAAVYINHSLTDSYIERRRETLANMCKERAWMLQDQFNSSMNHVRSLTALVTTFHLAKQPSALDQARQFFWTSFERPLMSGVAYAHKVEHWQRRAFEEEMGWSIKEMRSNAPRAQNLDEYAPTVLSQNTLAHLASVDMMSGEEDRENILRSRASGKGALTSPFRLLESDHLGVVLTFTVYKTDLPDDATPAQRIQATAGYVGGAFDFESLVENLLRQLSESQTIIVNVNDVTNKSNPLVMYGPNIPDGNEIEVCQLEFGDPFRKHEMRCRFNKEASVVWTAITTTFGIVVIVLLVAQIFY
T2 sequence (A0A068JFF6 entry or part of it): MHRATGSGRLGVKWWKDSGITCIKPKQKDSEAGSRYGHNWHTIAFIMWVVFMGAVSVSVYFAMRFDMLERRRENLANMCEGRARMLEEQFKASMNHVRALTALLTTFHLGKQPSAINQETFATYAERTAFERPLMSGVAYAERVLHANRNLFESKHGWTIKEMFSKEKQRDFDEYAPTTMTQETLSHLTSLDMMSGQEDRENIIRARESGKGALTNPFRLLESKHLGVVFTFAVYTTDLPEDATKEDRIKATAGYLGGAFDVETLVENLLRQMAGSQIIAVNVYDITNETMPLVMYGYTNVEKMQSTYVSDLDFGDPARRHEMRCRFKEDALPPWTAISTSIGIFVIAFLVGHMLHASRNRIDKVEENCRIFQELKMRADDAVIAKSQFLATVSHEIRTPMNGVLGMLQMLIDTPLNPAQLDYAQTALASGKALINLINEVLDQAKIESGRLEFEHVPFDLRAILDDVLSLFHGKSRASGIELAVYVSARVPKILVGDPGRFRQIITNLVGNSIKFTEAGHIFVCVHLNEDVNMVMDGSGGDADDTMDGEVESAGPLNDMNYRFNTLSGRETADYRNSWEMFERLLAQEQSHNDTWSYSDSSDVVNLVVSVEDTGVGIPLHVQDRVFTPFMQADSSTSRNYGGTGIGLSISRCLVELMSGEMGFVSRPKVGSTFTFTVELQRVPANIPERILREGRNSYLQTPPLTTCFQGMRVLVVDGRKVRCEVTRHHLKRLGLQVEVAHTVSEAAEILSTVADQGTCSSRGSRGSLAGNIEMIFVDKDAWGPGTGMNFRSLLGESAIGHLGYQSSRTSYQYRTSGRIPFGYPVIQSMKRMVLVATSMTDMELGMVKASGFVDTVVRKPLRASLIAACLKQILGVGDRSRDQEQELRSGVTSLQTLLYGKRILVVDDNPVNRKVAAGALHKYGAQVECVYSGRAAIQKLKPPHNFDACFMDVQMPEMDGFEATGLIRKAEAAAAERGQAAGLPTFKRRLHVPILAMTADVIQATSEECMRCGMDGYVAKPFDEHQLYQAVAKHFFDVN
T3 sequence (D8SUD5 entry or part of it): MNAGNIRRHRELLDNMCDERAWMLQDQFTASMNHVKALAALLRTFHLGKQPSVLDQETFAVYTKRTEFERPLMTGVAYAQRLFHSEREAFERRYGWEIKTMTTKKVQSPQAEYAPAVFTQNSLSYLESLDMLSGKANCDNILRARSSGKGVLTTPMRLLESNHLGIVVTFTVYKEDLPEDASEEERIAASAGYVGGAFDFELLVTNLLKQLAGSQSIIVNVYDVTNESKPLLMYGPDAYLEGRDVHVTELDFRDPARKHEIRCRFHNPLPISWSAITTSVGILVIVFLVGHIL
T4 sequence (A0A068JG96 entry or part of it): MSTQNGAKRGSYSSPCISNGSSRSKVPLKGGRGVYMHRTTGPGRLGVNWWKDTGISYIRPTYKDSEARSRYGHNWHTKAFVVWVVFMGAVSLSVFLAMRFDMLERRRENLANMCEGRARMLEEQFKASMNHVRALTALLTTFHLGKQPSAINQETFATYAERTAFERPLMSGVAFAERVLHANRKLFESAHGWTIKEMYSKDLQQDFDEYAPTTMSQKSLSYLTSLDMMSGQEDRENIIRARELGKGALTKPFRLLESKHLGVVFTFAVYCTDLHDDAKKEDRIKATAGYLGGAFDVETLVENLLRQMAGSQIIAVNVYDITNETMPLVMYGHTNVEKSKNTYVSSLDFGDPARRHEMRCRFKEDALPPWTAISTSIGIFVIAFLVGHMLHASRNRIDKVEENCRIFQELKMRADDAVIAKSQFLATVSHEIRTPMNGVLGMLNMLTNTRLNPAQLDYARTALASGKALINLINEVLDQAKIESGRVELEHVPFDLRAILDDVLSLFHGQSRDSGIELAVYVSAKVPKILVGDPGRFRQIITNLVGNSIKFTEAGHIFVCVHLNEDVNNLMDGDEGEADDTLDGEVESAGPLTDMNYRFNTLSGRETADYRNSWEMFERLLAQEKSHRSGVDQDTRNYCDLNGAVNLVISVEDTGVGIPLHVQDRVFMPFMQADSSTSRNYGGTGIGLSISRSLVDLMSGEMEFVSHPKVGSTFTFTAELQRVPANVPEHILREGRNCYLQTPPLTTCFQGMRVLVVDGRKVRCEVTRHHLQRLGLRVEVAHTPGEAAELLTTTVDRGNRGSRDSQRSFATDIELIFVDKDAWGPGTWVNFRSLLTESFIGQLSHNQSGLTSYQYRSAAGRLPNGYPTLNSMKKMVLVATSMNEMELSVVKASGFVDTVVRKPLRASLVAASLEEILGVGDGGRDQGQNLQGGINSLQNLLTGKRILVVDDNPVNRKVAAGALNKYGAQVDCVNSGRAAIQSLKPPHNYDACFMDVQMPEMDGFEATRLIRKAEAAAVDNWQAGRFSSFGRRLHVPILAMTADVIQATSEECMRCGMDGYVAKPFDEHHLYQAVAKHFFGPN

Row | Structure (SMILES) | Kd (PaCHK1 [1]; [15]) | Kd (PaCHK1 [1]; [16]) | Kd (SmCHK6 [4]; [17]) | Kd (SmCHK6 [4]; [18]) | Kd (PaCHK2 [9]; [19]) | Kd (PpCHK1 [10]; [20]) | Kd (PpCHK2 [11]; [21]) | Kd (SmCHK4a [12]; [22]) | Kd (SmCHK4a [12]; [23]) | PaCHK1/CHK2 affinity ratio (KD1/KD2) (PaCHK1 [1]) | Kd (PaCHK1 [1]; [24]) | Kd (PaCHK1 [1]; [25]) | Kd (PaCHK2 [9]; [24]) | Kd (PaCHK2 [9]; [25]) | Kd (PpCHK1 [10]; [26]) | Kd (PpCHK2 [11]; [27]) | Kd (PaCHK2 [9]; [28]) | PaCHK1/CHK2 affinity ratio (KD1/KD2) (PaCHK1 [1]; [29]) | also measured
1 | CC(C)=CCNc1ncnc2nc[nH]c12 [iP, isopentenyladenine] | 3.6 ± 0.17 nM | 3 ± 0.7 nM | 1.7 ± 0.16 nM | 2.5 ± 0.8 nM | 2.2 ± 0.08 nM | 1.2 ± 0.3 nM | 0.9 nM | 1.6 ± 0.13 nM | 0.8 ± 0.2 nM |  |  |  |  |  |  |  |  |  | Kd (SmCHK4a [2]): 1.56 nM; Kd (PpCHK1 [3]): 1.59 nM; binding of labeled iP (PpCHK4): did not recognize; binding of labeled iP (PpCHK3 [5]): did not recognize; Kd (PpCHK2 [6]): 1.45 nM; Kd (SmCHK6 [7]): 1.75 nM; Kd (PaCHK1 [8]): 3.89 nM; Kd (PaCHK2 [13]): 2.03 nM
2 | C/C(=C\CNc1ncnc2[nH]cnc12)CO [tZ, trans-zeatin] |  |  |  |  |  | 24.8 ± 2.9 nM | 12.4 ± 1.5 nM |  |  | 7.21 | 7.57 ± 0.37 nM | 5.9 ± 1 nM | 1.05 ± 0.09 nM | 1.3 ± 0.4 nM | 36.9 ± 2 nM | 18.1 ± 1.5 nM |  |  | binding of labeled tZ (PpCHK3 [14]): lacks the ability to bind; PpCHK1/CHK2 affinity ratio (KD1/KD2) (PpCHK1 [10]; microsomes): 2.04
3 | C/C(=C/CNc1ncnc2nc[nH]c12)CO [cZ, cis-zeatin] |  |  |  |  |  |  |  |  |  | 23.4 | 419 ± 56 nM | 286 ± 69.4 nM | 17.9 ± 2.9 nM | 22.7 ± 3.2 nM |  |  |  |  | cZ/tZ KD ratio (PaCHK1 [1]): 55.4; Kd (SmCHK6 [4]; [24]): 16.6 ± 2.4 nM; Kd (SmCHK6 [4]; [25]): 39 ± 5.1 nM; cZ/tZ KD ratio (PaCHK2 [9]): 17.0; cZ/tZ KD ratio (affinity for tZ exceeds that for cZ) (AHK3): 376 folds; PpCHK1/CHK2 affinity ratio (KD1/KD2) (PpCHK1 [10]): 3.01; cZ/tZ KD ratio (PpCHK1 [10]): 2.79; Kd (PpCHK1 [10]; [24]): 103 ± 15 nM; Kd (PpCHK1 [10]; [25]): 94.4 ± 26.3 nM; cZ/tZ KD ratio (PpCHK2 [11]): 1.89; Kd (PpCHK2 [11]; [24]): 34.2 ± 9.3 nM; Kd (PpCHK2 [11]; [25]): 48.6 ± 9.7 nM; cZ/tZ KD ratio (SmCHK4a [12]): 2.58; Kd (SmCHK4a [12]; [24]): 20.6 ± 2.6 nM; Kd (SmCHK4a [12]; [25]): 20 ± 4.9 nM
4 | c1ccc(CNc2ncnc3nc[nH]c23)cc1 [BA, benzyladenine] | 61.9 ± 1.3 nM | 38.4 ± 2.6 nM | 2.28 ± 0.7 nM | 2.9 ± 0.4 nM | 13.5 ± 1.6 nM | 12.8 ± 3 nM | 14.9 ± 1.2 nM | 6.91 ± 0.34 nM | 3.2 ± 0.8 nM |  |  |  |  |  | 13.9 ± 0.1 nM | 10.7 ± 0.5 nM | 12.3 ± 3.9 nM |  | 
5 | CC(CO)CCNc1ncnc2nc[nH]c12 (stereo not drawn) [DZ, dihydrozeatin] | 377 ± 27 nM | 244 ± 25.9 nM |  |  | 22.4 ± 2.9 nM | 676 ± 14.4 nM | 501 ± 74.7 nM |  |  |  |  |  |  |  | 507 ± 42 nM | 323 ± 97 nM | 29.1 ± 5.4 nM | 16.8 | 
6 | O=C(Nc1ccccc1)Nc1cnns1 [TD, thidiazuron] | 6.7 ± 0.21 nM | 3.8 ± 0.6 nM |  |  | 64.5 ± 6.4 nM |  | 11.9 ± 2.8 nM |  |  |  |  |  |  |  | 23.8 ± 5.4 nM | 13 ± 0.2 nM | 244 ± 94.8 nM | 0.1 | PpCHK1/CHK2 affinity ratio (KD1/KD2) (PpCHK1 [10]; KD for PpCHK1 divided by KD for PpCHK2, Table 1 values): 1.83
